Literature values as cited in publication PMC5579141.

Assay: not told

Compound | log partition benzene / water [log10] | log partition dibutyl ether / water [log10] | log partition dichloromethane / water [log10] | log partition heptane / water [log10] | log partition hexanol / water [log10] | log partition nitrobenzene / water [log10] | log partition nonanol / water [log10] | log partition octane / water [log10] | log partition tetrachloromethane / water [log10] | log partition toluene / water [log10] | log partition trichloromethane / water [log10] | other results
CC(=O)CC(=O)C(F)(F)F | 0.15 | 0.08 | 0.40 | −0.57 | 0.62 | 0.30 | 0.59 | −0.62 | 0.02 | 0.13 | 0.33 | log partition dodecane / water: −0.76 log10; log partition ethylbenzene / water: −0.18 log10; log partition hexane / water: −0.51 log10; log partition pentanol / water: 0.52 log10
CC(=O)CC(=O)c1ccccc1 | 3.05 | 2.36 | 3.48 | 2.03 | 2.48 | 3.19 | 2.43 | 2.00 | 2.77 | 2.91 | 3.50 | log partition 1,2-dichloroethane / water: 3.23 log10; log partition bromobenzene / water: 3.36 log10; log partition chlorobenzene / water: 3.13 log10; log partition cyclohexane / water: 2.11 log10; log partition decane / water: 2.00 log10; log partition decanol / water: 2.38 log10; log partition m-xylene / water: 2.81 log10; log partition nonane / water: 1.97 log10; log partition octanol / water: 2.52 log10
